What was measured:
[1] = test system: Ar-5 T cells (NF-AT induction, IL-2 gene expression); assay: Induction of NF-AT and IL-2 gene expression in activated Ar-5 T cells; format: cell-based, murine; conditions: Ar-5 cells activated through T cell antigen receptor/CD3
Procedure: For preparation of nuclear extracts from activated T cells, cells were incubated for two hours with cross-linked anti-CD3ε monoclonal antibody (145-2C11, Kubo, R. T., Born, W., Kappler, J. W., Marrack, P., and Pigeon, M. (1989) J. Immunol. 142, 2736-2742) in the presence or absence of 1 μM CsA. Activation conditions and preparation of nuclear extracts was exactly as previously described (McCaffrey, P. G., Jain, J., Jamieson, C., Sen, R., and Rao, A. (1992) J. Biol. Chem. 267, 1864-1871). Protein determinations were done by the method of Bradford (Bradford, M. (1976) Anal. Biochem. 72,248-254), using bovine serum albumin as a standard.
To characterize the preexisting, DNA-binding component of NF-AT, we have used the murine IL-2 dependent T cell clone Ar-5. Activation of Ar-5 cells with monoclonal antibodies to the T cell antigen receptor or its associated CD3 complex causes the rapid appearance in the nucleus of several inducible transcription factor including NF-AT, which is followed by expression of the IL-2 gene and cell proliferation (Jamieson, C., McCaffrey, P. G., Rao, A., and Sen, R. (1991) J. Immunol. 147,416-420). […] We have previously established that unactivated Ar-5 cells contain a protein or proteins, extracted under hypotonic lysis conditions, that can bind in the EMSA to an oligonucleotide comprising the distal NF-AT sequence from the murine IL-2 promoter. […]

[2] = test system: NF-ATp dephosphorylation in Ar-5 T cell extracts; assay: Dephosphorylation of NF-ATp (apparent molecular weight by SDS-PAGE, renaturation, EMSA) in extracts of drug-treated Ar-5 T cells; format: cell-based, murine; conditions: prior treatment of T cells for 10 minutes with 1 μM CsA or 100 nM FK506 before lysis
Procedure: To prepare hypotonic extracts, cells were harvested by centrifugation, washed with phosphate buffered saline and resuspended to 10^8 cells/ml in buffer containing 7.5 mM Tris (pH 7.6), 2 mM PMSF, 1 mM MgCl2, 0.5 mM DTT, 0.25 mM leupeptin, 0.1 mM EDTA and 1 mg/ml aprotinin. The cells were lysed by quick-freezing in dry ice and rapid thawing in a room-temperaturewater bath, followed by centrifugation at 12,000 x g for 10 minutes. Where indicated, cells were treated before harvesting with 1 μM CsA (Sandoz Corp.) or 100 nM FK506 (Fujisawa Pharmaceutical) for 10 minutes at 37° C.
Hypotonic or nuclear extracts were boiled in SDS-PAGE sample buffer (65 mM Tris, pH 6.8, 2% SDS, 2% 2-mercaptoethanol, 10% glycerol, 0.01 mg/ml bromphenol blue) and fractionated on 3 mm thick SDS-polyacrylamide gels by standard methods (Laemmli, U. K. (1970) Nature 227, 680-685). Molecular weight standards (BioRad Laboratories) were also run on the same gel. After electrophoresis, the standards were cut off and separately stained. For recovery of proteins from the gels, slices (1 cm×0.5 cm) from wet, unfixed gels were crushed and eluted overnight in 50 mM Tris, pH 7.9, 1 mM DTT, 0.2 mM EDTA, 0.1 mM PMSF, 0.1 mg/ml BSA, 2.5% glycerol and 0.1% SDS (Baeuerle, P., and Baltimore, D. (1988) Cell 53, 211-217). […]

Compound: C=CC[C@@H]1/C=C(\C)C[C@H](C)C[C@H](OC)[C@H]2O[C@@](O)(C(=O)C(=O)N3CCCC[C@H]3C(=O)O[C@H](/C(C)=C/[C@@H]3CC[C@@H](O)[C@H](OC)C3)[C@H](C)[C@@H](O)CC1=O)[C@H](C)C[C@@H]2OC [FK506]
- Induction of NF-AT and subsequent IL-2 gene expression [1]: completely blocked
- Dephosphorylation of NF-ATp in cell extracts [2]: inhibited
